Experimental data reported in US11136313B2, “Compounds, compositions, and methods for modulating CFTR” (Proteostasis Therapeutics, Inc., priority 2015, dated 2021).

target: T1, ΔF508-CFTR (Homo sapiens, UniProt P13569, DEL508-508); test: hBE equivalent current (Ieq) assay: AUC of equivalent chloride current after forskolin/VX-770 in primary lung epithelial cells homozygous for ΔF508; format: cell-based; conditions: relative to CFTR amplifier (Compound A)+VX-809 (3 uM), compound at 10 uM and Compound A at 3 uM, 24 h treatment
T1 construct: Primary lung epithelial cells homozygous for the Cystic Fibrosis-causing ΔF508 mutation were differentiated for a minimum of 4 weeks; endogenous in cells; host or cells: primary lung epithelial cells (hBE) homozygous for ΔF508, differentiated at an air-liquid interface
T1 sequence (P13569 with tags, fused parts or gaps DEL508-508): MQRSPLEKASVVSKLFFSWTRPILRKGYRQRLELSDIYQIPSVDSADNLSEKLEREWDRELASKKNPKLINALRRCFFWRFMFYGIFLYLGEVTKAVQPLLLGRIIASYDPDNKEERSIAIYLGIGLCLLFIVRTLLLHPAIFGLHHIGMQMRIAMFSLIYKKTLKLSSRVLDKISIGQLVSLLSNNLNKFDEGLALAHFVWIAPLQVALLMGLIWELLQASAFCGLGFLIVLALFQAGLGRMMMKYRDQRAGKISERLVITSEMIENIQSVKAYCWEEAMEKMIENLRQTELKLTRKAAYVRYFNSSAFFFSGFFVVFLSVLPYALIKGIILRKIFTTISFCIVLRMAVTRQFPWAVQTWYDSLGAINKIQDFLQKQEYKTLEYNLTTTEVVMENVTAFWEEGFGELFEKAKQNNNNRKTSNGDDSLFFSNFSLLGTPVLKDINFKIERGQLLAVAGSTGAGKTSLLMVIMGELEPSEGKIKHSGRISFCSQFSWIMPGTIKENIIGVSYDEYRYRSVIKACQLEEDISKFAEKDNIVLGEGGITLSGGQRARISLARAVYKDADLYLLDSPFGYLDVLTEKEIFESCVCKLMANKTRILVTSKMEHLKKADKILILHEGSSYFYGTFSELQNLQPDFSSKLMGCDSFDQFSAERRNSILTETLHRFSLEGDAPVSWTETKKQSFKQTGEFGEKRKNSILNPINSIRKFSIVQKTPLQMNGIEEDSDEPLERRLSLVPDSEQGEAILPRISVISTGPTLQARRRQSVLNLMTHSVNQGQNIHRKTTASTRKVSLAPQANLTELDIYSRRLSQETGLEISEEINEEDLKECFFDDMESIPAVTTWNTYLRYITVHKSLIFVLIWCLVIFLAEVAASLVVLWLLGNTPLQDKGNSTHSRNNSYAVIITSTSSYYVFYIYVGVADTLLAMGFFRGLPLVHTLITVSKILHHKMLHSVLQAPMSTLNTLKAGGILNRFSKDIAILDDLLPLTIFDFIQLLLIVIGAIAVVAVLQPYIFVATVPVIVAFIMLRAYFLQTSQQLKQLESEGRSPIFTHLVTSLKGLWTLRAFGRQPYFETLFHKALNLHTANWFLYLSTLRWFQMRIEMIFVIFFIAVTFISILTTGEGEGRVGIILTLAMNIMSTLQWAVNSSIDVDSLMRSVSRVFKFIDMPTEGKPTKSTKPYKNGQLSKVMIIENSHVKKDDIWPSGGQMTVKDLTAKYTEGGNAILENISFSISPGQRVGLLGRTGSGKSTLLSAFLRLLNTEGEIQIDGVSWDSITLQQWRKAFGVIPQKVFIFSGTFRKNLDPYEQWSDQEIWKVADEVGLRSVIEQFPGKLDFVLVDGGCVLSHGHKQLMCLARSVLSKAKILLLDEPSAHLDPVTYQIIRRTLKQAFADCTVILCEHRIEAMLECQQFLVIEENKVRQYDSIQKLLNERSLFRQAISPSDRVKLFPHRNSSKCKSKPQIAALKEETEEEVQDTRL
Outline: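 ΔF508/ΔF508 primary human bronchial epithelia, differentiated ≥4 weeks at air-liquid interface, treated basolaterally with compound for 24 h at 37 °C. Transepithelial voltage and conductance by 24-channel current clamp at 36 °C: benzamil, then forskolin plus VX-770 for 27 min, then bumetanide; AUC of equivalent chloride current over vehicle.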

| Compound | Activity |
| --- | --- |
| Cc1c(-c2cc(C(=O)O)c3c(C)ccc(C)c3n2)oc2c(F)cccc12 [Compound 130, 2-(7-Fluoro-3-methyl-1-benzofuran-2-yl)-5,8-dimethylquinoline-4-carboxylic acid] | + (activity<50% of an CFTR amplifier (Compound A)+VX-809 (3 uM) with compound at 10 uM and Compound A at 3 uM) |
| Cc1c(-c2cc(C(=O)O)c3c(C)ccc(C)c3n2)oc2c(OCc3ccccc3)cccc12 [Compound 132, 2-[7-(Benzyloxy)-3-methyl-1-benzofuran-2-yl]-5,8-dimethylquinoline-4-carboxylic acid] | ++ (activity>50% of CFTR amplifier+VX-809 (3 uM) with compound at 10 uM and Compound A at 3 uM) |
| CCc1ccc(OCc2ccccc2)c2c(C(=O)O)cc(-c3sc4ccccc4c3C)nc12 [Compound 133, 5-(Benzyloxy)-8-ethyl-2-(3-methyl-1-benzothiophen-2-yl)quinoline-4-carboxylic acid] | ++ (activity>50% of CFTR amplifier+VX-809 (3 uM) with compound at 10 uM and Compound A at 3 uM) |
| Cc1c(-c2cc(C(=O)O)c3c(OC4CCCCC4)ccc(C)c3n2)sc2ccccc12 [Compound 134, 5-(Cyclohexyloxy)-8-methyl-2-(3-methyl-1-benzothiophen-2-yl)quinoline-4-carboxylic acid] | ++ (activity>50% of CFTR amplifier+VX-809 (3 uM) with compound at 10 uM and Compound A at 3 uM) |
| CCc1ccc(OC2CCCCC2)c2c(C(=O)O)cc(-c3sc4ccccc4c3C)nc12 [Compound 135, 5-(Cyclohexyloxy)-8-ethyl-2-(3-methyl-1-benzothiophen-2-yl)quinoline-4-carboxylic acid] | ++ (activity>50% of CFTR amplifier+VX-809 (3 uM) with compound at 10 uM and Compound A at 3 uM) |
| Cc1c(-c2cc(C(=O)O)c3c(O[C@H](C)c4ccccc4)ccc(C)c3n2)sc2ccccc12 [Compound 137, 8-Methyl-2-(3-methyl-1-benzothiophen-2-yl)-5-[(1R)-1-phenylethoxy]quinoline-4-carboxylic Acid] | ++ (activity>50% of CFTR amplifier+VX-809 (3 uM) with compound at 10 uM and Compound A at 3 uM) |
| Cc1c(-c2cc(C(=O)O)c3c(O[C@@H](C)c4ccccc4)ccc(C)c3n2)sc2ccccc12 [Compound 138, 8-Methyl-2-(3-methyl-1-benzothiophen-2-yl)-5-[(1S)-1-phenylethoxy]quinoline-4-carboxylic Acid] | ++ (activity>50% of CFTR amplifier+VX-809 (3 uM) with compound at 10 uM and Compound A at 3 uM) |
| CCc1ccc([S+]([O-])C2CCCCC2)c2c(C(=O)[O-])cc(-c3sc4ccccc4c3C)nc12.[Na+] (stereo not shown) [Compound 140, Sodium 5-(Cyclohexanesulfinyl)-8-ethyl-2-(3-methyl-1-benzothiophen-2-yl)quinoline-4-carboxylate] | ++ (activity>50% of CFTR amplifier+VX-809 (3 uM) with compound at 10 uM and Compound A at 3 uM) |
| CCc1ccc(OCCc2cccnc2)c2c(C(=O)O)cc(-c3sc4ccccc4c3C)nc12 [Compound 141, 8-Ethyl-2-(3-methyl-1-benzothiophen-2-yl)-5-[2-(pyridin-3-yl)ethoxy]quinoline-4-carboxylic Acid] | + (activity<50% of an CFTR amplifier (Compound A)+VX-809 (3 uM) with compound at 10 uM and Compound A at 3 uM) |
| CCc1ccc(OCc2cccc([S+](C)[O-])c2)c2c(C(=O)O)cc(-c3oc4ccccc4c3C)nc12 (stereo not shown) [Compound 142, 8-Ethyl-5-[(3-methanesulfinylphenyl)methoxy]-2-(3-methyl-1-benzofuran-2-yl)quinoline-4-carboxylic Acid] | ++ (activity>50% of CFTR amplifier+VX-809 (3 uM) with compound at 10 uM and Compound A at 3 uM) |
| CCc1ccc(OCc2cccc(S(C)(=O)=O)c2)c2c(C(=O)O)cc(-c3oc4ccccc4c3C)nc12 [Compound 143, 8-Ethyl-5-[(3-methanesulfonylphenyl)methoxy]-2-(3-methyl-1-benzofuran-2-yl)quinoline-4-carboxylic Acid] | ++ (activity>50% of CFTR amplifier+VX-809 (3 uM) with compound at 10 uM and Compound A at 3 uM) |
| CCc1ccc(OCc2ccc([S+](C)[O-])cc2)c2c(C(=O)O)cc(-c3oc4ccccc4c3C)nc12 (stereo not shown) [Compound 144, 8-Ethyl-5-[(4-methanesulfinylphenyl)methoxy]-2-(3-methyl-1-benzofuran-2-yl)quinoline-4-carboxylic acid] | ++ (activity>50% of CFTR amplifier+VX-809 (3 uM) with compound at 10 uM and Compound A at 3 uM) |
| CCc1ccc(OCc2ccc(S(C)(=O)=O)cc2)c2c(C(=O)O)cc(-c3oc4ccccc4c3C)nc12 [Compound 145, 8-Ethyl-5-[(4-methanesulfonylphenyl)methoxy]-2-(3-methyl-1-benzofuran-2-yl)quinoline-4-carboxylic acid] | ++ (activity>50% of CFTR amplifier+VX-809 (3 uM) with compound at 10 uM and Compound A at 3 uM) |
| CCc1ccc(OCc2ccccc2)c2c(C(=O)O)cc(-c3[nH]c4ccccc4c3C)nc12 [Compound 146, 5-(Benzyloxy)-8-ethyl-2-(3-methyl-1H-indol-2-yl)quinoline-4-carboxylic acid] | ++ (activity>50% of CFTR amplifier+VX-809 (3 uM) with compound at 10 uM and Compound A at 3 uM) |
| CCc1ccc(OCc2ccccc2)c2c(C(=O)O)cc(-c3c(C)c4ccccc4n3C)nc12 [Compound 147, 5-(Benzyloxy)-2-(1,3-dimethyl-1H-indol-2-yl)-8-ethylquinoline-4-carboxylic acid] | + (activity<50% of an CFTR amplifier (Compound A)+VX-809 (3 uM) with compound at 10 uM and Compound A at 3 uM) |
| CCc1ccc(OCc2ccccc2)c2c(C(=O)O)cc(-c3csc4ccccc34)nc12 [Compound 158, 2-(1-Benzothiophen-3-yl)-5-(benzyloxy)-8-ethylquinoline-4-carboxylic acid] | ++ (activity>50% of CFTR amplifier+VX-809 (3 uM) with compound at 10 uM and Compound A at 3 uM) |

| Compound | Activity |
| --- | --- |
| CCc1ccc(OC2CCCCC2)c2c(C(=O)O)cc(-c3csc4ccccc34)nc12 [Compound 159, 2-(1-Benzothiophen-3-yl)-5-(cyclohexyloxy)-8-ethylquinoline-4-carboxylic acid] | ++ (activity>50% of CFTR amplifier+VX-809 (3 uM) with compound at 10 uM and Compound A at 3 uM) |
| Cc1ccc(O[C@H](C)c2ccccc2)c2c(C(=O)O)cc(-c3csc4ccccc34)nc12 [Compound 162] | ++ (activity>50% of CFTR amplifier+VX-809 (3 uM) with compound at 10 uM and Compound A at 3 uM) |
| CCc1ccc(O[C@H](C)c2ccccc2)c2c(C(=O)O)cc(-c3csc4ccccc34)nc12 [Compound 165] | ++ (activity>50% of CFTR amplifier+VX-809 (3 uM) with compound at 10 uM and Compound A at 3 uM) |
| CCc1ccc(O[C@@H](C)c2ccccc2)c2c(C(=O)O)cc(-c3csc4ccccc34)nc12 [Compound 166] | ++ (activity>50% of CFTR amplifier+VX-809 (3 uM) with compound at 10 uM and Compound A at 3 uM) |
| CCc1ccc(OCc2ccccc2)c2c(C(=O)O)cc(-c3coc4ccccc34)nc12 [Compound 169, 2-(1-Benzofuran-3-yl)-5-(benzyloxy)-8-ethylquinoline-4-carboxylic acid] | ++ (activity>50% of CFTR amplifier+VX-809 (3 uM) with compound at 10 uM and Compound A at 3 uM) |
| CCc1ccc(OC2CCCCC2)c2c(C(=O)O)cc(-c3coc4ccccc34)nc12 [Compound 170, 2-(1-Benzofuran-3-yl)-5-(cyclohexyloxy)-8-ethylquinoline-4-carboxylic acid] | ++ (activity>50% of CFTR amplifier+VX-809 (3 uM) with compound at 10 uM and Compound A at 3 uM) |
| CCc1ccc(OCc2ccccc2)c2c(C(=O)O)cc(-c3c(C)oc4ccccc34)nc12 [Compound 175] | ++ (activity>50% of CFTR amplifier+VX-809 (3 uM) with compound at 10 uM and Compound A at 3 uM) |
| CCc1ccc(OC2CCCCC2)c2c(C(=O)O)cc(-c3c(C)oc4ccccc34)nc12 [Compound 176] | ++ (activity>50% of CFTR amplifier+VX-809 (3 uM) with compound at 10 uM and Compound A at 3 uM) |
| CCc1cc(C(C)(C)C)cc2c(C(=O)O)cc(-c3c(C)oc4ccccc34)nc12 [Compound 178, 6-tert-Butyl-8-ethyl-2-(2-methyl-1-benzofuran-3-yl)quinoline-4-carboxylic acid] | ++ (activity>50% of CFTR amplifier+VX-809 (3 uM) with compound at 10 uM and Compound A at 3 uM) |
| CCc1ccc(COc2ccccc2)c2c(C(=O)O)cc(-c3csc4ccccc34)nc12 [Compound 180] | ++ (activity>50% of CFTR amplifier+VX-809 (3 uM) with compound at 10 uM and Compound A at 3 uM) |
| CCc1ccc(O[C@H]2CCC[C@@H](C)C2)c2c(C(=O)O)cc(-c3csc4ccccc34)nc12 [Compound 181, 2-(1-Benzothiophen-3-yl)-8-ethyl-5-[[(1S,3R)-3-methylcyclohexyl]oxy]quinoline-4-carboxylic Acid] | ++ (activity>50% of CFTR amplifier+VX-809 (3 uM) with compound at 10 uM and Compound A at 3 uM) |
| CCc1ccc(O[C@@H]2CCC[C@H](C)C2)c2c(C(=O)O)cc(-c3csc4ccccc34)nc12 [Compound 182, 2-(Benzo[b]thiophen-3-yl)-8-ethyl-5-(((1R,3S)-3-methylcyclohexyl)oxy)quinoline-4-carboxylic Acid] | ++ (activity>50% of CFTR amplifier+VX-809 (3 uM) with compound at 10 uM and Compound A at 3 uM) |
| CCc1ccc(O[C@@H]2CCC[C@@H](C)C2)c2c(C(=O)O)cc(-c3csc4ccccc34)nc12 [Compound 184, 2-(Benzo[b]thiophen-3-yl)-8-ethyl-5-(((1R,3R)-3-methylcyclohexyl)oxy)quinoline-4-carboxylic Acid] | ++ (activity>50% of CFTR amplifier+VX-809 (3 uM) with compound at 10 uM and Compound A at 3 uM) |
| CCc1ccc(OCc2cccc(C)c2)c2c(C(=O)O)cc(-c3csc4ccccc34)nc12 [Compound 188] | ++ (activity>50% of CFTR amplifier+VX-809 (3 uM) with compound at 10 uM and Compound A at 3 uM) |
| CCc1ccc(OCc2ccc(C)cc2)c2c(C(=O)O)cc(-c3csc4ccccc34)nc12 [Compound 189] | ++ (activity>50% of CFTR amplifier+VX-809 (3 uM) with compound at 10 uM and Compound A at 3 uM) |
